The source of these data is ChEMBL document CHEMBL3785054, “Identification of inhibitors for vascular endothelial growth factor receptor by using dynamic combinatorial chemistry” (Bioorg Med Chem Lett, 2016).

Active and inactive are the calls of the source. The calls are words filed in the database; no cut-off is given here. A value given as a limit tells only on which side of the number the result lay.

The nature of experiment [1]: Cytotoxicity against human PC3 cells by MTT assay. Format: functional, cell-based. The note with it: PC-3.
A further experiment deals with HT-29. Kind of experiment: Cytotoxicity against human HT-29 cells by MTT assay. Format: functional, cell-based.
The next experiment deals with MDA-MB-435. Kind of experiment: Cytotoxicity against human MDA-MB-435 cells by MTT assay. Format: functional, cell-based.
The test system of a further experiment is A549. Kind of experiment: Cytotoxicity against human A549 cells by MTT assay. Format: functional, cell-based.
Experiment [2] in a line: Cytotoxicity against human BGC823 cells by MTT assay. Format: functional, cell-based. The note with it: BGC-823.
The subject of the next experiment is Chorioallantoic membrane. Kind of experiment: Antiangiogenic activity in chicken chorioallantoic membrane assessed as inhibition of vascular branch formation after 3 days. Format: functional. The note with it: Gallus gallus.
Experiment [3] can be described thus: Cytotoxicity against human […] cells by MTT assay. Format: functional, cell-based.

Consider `CCN(CC)CCNC(=O)c1c(C)[nH]c(/C=C2\C(=O)Nc3ccc(F)cc32)c1C` [SUNITINIB], for which the IC50 in experiment [1] was 55.6 µM; in the experiment with HT-29, 1.7 µM; in the experiment on MDA-MB-435, 9.3 µM; in the experiment with A549, 9.1 µM.

For `O=C(Nc1ccc2c(/C=N/c3ccccn3)n[nH]c2c1)Nc1nncs1`, the IC50 is greater than 100 µM in experiment [2]; greater than 100 µM in experiment [1]; 9.4 µM in the experiment with HT-29; 4.8 µM with MDA-MB-435; 56.4 µM with A549; greater than 100 µM in experiment [3]. Also, the inhibition entry in the experiment with Chorioallantoic membrane was “Active”.

For `O=C(Nc1ccc2c(/C=N/c3ncccn3)n[nH]c2c1)Nc1nccs1`, the IC50 was found to be 12.8 µM in experiment [2]; 6.8 µM in experiment [1]; 78.6 µM in the experiment on HT-29; 55.2 µM in the experiment with MDA-MB-435; 19.6 µM in the experiment with A549; 15.4 µM in experiment [3]. Further, the inhibition in the experiment on Chorioallantoic membrane (dose or concentration not given here) is 51.6%.

Regarding `O=C(Nc1ccc2c(/C=N/c3cccnc3)n[nH]c2c1)Nc1nncs1`, the IC50 in experiment [2] was 67.2 µM; in experiment [1] it was 7.8 µM; in the experiment on HT-29 it was 12.1 µM; with MDA-MB-435, 55.6 µM; in the experiment on A549, 2.4 µM; in experiment [3], greater than 100 µM. Also, in the experiment with Chorioallantoic membrane, the inhibition result is “Active”.

Consider `CC1CC(=O)NN=C1c1ccc(NC(=O)Nc2ccc3c(/C=N/c4nccs4)n[nH]c3c2)cc1` (stereo unspecified), for which the IC50 is 78 µM in experiment [2]; 5.6 µM in experiment [1]; 12.8 µM in the experiment on HT-29; 22.7 µM in the experiment on MDA-MB-435; 8.9 µM in the experiment on A549; 11.2 µM in experiment [3].
